Results as given in US10125098B2, “Therapeutic compounds and methods of use thereof” (GENENTECH, INC., priority 2014, dated 2018).
Structures can show the parent of a compound that is named as a salt. Where two headings read alike, the source gives them in different places.

Columns and labels:
NaV1.5 = target: T1, NaV1.5 (Homo sapiens, UniProt Q14524); assay: Patch voltage clamp electrophysiology assay (EP), NaV1.5; assay type: cell-based
T1 construct: permanently transfected with an expression vector containing the full-length cDNA coding for the desired human sodium channel α-subunit; expressed in transfected cells; host or cells: HEK-293
T1 sequence (Q14524 whole entry): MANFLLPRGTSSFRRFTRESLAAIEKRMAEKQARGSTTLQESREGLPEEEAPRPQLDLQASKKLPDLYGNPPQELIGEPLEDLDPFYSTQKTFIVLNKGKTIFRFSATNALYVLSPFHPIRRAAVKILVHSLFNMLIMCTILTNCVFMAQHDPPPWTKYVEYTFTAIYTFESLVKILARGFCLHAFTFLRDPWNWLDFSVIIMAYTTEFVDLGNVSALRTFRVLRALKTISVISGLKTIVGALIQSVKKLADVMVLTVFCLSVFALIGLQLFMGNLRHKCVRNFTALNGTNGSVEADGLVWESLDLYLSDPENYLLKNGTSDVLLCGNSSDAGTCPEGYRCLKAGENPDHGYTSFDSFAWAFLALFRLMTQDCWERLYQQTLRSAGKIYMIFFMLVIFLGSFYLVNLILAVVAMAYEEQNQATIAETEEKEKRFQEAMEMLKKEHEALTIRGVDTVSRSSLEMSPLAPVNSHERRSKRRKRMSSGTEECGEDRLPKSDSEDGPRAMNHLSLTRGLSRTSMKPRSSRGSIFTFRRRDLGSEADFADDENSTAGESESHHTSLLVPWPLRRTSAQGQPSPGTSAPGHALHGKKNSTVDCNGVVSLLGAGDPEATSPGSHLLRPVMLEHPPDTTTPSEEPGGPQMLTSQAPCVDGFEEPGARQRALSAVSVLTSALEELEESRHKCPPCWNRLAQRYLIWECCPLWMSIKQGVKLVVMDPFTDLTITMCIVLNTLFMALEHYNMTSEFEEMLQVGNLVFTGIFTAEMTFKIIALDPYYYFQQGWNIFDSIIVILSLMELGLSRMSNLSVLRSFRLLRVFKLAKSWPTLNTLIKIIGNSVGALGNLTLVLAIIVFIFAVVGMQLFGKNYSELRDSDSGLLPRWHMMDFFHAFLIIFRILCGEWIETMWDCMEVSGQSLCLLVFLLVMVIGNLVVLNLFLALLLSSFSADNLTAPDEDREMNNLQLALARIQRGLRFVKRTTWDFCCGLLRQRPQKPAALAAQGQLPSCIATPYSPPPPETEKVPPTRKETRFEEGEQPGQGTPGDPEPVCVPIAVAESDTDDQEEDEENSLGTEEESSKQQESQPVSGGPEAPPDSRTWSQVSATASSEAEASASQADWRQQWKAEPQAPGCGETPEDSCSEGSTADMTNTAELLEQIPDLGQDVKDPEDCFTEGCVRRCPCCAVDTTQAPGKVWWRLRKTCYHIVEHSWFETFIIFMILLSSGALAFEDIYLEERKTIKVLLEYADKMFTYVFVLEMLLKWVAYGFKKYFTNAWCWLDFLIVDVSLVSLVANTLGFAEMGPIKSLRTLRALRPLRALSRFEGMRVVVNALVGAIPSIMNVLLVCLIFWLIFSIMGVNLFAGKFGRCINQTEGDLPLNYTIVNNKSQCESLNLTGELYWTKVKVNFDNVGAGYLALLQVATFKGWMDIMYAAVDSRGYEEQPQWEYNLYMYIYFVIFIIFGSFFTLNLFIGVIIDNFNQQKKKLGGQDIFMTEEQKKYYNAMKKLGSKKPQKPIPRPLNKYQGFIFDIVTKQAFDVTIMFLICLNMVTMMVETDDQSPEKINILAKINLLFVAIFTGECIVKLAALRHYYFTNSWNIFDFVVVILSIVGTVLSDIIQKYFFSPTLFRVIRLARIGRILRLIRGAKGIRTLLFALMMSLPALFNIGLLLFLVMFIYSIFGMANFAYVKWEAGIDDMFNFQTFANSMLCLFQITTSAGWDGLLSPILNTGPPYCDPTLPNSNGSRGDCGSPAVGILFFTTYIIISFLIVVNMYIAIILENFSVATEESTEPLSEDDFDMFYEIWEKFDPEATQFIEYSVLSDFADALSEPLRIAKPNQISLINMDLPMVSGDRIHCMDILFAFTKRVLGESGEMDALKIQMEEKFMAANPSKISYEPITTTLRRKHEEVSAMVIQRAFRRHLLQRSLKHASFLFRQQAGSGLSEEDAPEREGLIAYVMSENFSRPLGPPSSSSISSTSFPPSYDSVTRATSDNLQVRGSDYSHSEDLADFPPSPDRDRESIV
How it was run: (§1)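 Percent block is the drop in sodium current after compound wash-on, measured by a test pulse following 20 ms at −150 mV from a −60 mV inactivating holding potential.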

human NaV1.7 = target: T2, human NaV1.7 (Homo sapiens, UniProt Q15858); assay: Patch voltage clamp electrophysiology assay (EP), NaV1.7; assay type: cell-based; settings: HEK-293 cells stably expressing NaV1.7 with β1 subunit; whole-cell patch clamp, membrane potential −60 mV (inactivated state)
T2 construct: permanently transfected with an expression vector containing the full-length cDNA coding for the desired human sodium channel α-subunit; expressed in transfected cells; host or cells: HEK-293
T2 sequence (Q15858 1-1977 isoform Q15858-3): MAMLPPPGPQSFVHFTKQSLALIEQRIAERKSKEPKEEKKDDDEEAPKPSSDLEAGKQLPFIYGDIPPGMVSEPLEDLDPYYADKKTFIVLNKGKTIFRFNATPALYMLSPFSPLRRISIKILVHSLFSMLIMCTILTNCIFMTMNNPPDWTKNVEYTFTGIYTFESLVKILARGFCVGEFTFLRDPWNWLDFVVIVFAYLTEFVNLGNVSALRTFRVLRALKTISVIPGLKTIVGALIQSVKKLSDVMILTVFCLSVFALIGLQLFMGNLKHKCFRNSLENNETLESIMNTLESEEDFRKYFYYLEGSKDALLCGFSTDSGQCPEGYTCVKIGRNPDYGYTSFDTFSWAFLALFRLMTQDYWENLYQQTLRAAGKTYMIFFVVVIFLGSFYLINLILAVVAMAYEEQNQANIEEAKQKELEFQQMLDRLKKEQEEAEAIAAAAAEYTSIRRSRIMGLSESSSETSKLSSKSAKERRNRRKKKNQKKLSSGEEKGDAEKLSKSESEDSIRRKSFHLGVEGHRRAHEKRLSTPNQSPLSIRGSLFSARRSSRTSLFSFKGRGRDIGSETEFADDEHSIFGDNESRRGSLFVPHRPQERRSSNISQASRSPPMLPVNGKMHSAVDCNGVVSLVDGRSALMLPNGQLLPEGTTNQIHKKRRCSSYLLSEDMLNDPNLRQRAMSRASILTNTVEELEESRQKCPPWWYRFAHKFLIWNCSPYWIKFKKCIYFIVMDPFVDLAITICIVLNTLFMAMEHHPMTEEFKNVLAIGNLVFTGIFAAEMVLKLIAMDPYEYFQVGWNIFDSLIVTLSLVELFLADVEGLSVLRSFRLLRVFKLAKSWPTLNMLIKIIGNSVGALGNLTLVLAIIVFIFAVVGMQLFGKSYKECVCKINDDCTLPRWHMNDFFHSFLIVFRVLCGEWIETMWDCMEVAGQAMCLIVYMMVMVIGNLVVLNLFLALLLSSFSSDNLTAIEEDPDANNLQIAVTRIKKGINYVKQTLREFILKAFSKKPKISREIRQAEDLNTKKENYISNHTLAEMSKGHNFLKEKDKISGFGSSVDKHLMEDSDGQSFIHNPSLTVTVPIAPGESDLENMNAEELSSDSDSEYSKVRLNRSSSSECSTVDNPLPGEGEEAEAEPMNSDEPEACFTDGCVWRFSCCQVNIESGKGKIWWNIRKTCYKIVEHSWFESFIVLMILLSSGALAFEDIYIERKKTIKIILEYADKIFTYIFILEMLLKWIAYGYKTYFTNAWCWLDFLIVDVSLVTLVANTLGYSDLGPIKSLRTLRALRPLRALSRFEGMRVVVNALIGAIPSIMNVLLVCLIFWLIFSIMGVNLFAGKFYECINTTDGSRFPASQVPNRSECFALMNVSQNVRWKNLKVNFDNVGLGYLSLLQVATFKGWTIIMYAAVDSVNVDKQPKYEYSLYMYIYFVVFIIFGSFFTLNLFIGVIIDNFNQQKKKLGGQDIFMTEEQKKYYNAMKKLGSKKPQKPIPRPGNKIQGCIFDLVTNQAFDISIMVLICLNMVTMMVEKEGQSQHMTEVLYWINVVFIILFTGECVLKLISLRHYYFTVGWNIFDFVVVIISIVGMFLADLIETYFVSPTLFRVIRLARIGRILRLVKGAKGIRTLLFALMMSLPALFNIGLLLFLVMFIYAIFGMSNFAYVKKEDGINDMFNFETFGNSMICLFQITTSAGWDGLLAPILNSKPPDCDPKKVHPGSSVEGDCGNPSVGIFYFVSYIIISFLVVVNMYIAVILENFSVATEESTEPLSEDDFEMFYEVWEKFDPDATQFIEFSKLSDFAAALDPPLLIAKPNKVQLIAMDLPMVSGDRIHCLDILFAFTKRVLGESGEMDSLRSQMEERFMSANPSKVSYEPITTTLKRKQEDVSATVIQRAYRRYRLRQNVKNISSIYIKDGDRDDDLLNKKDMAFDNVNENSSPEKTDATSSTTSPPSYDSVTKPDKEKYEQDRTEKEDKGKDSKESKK
T2 sequence (Q07699 19-218 partner): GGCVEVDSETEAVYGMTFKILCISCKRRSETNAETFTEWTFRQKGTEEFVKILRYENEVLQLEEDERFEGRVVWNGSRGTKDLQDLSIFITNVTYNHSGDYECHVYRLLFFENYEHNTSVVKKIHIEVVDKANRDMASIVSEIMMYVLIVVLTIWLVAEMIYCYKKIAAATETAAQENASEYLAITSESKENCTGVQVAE
How it was run: as §1

hNav1.7 = target: T3, hNav1.7 (Homo sapiens, UniProt Q15858); assay: Tritiated compound binding (LBA) to membranes from cells expressing hNav1.7 and the β1 subunit, competitive binding; settings: competitive binding vs 100 pM [3H]compound, 18 h, room temperature, membranes with hNav1.7 and β1 subunit
T3 construct: expressed in transfected cells
T3 sequence (Q15858 1-1977 isoform Q15858-3): as the sequence (Q15858 1-1977 isoform Q15858-3) above
T3 sequence (Q07699 19-218 partner): as the sequence (Q07699 19-218 partner) above
How it was run: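 Competitive displacement of 100 pM [3H]compound (tritiated methyl analogue of formula (I)) from hNav1.7/β1 membranes, 18 h at room temperature in NaCl/Tris pH 7.4 buffer containing 0.01% BSA. 1 μM unlabeled compound set non-specific binding. Bound label quantified by scintillation after filtration; 4-parameter fit gave IC50.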

[1] = HEK-293 cells stably expressing NaV1.5 with β1 subunit, whole-cell patch clamp, membrane potential −60 mV (inactivated state), read-out: Nav1.5
[2] = human, HEK-293 cells stably expressing human NaV1.5 with β1 subunit, pH 7.4, HEK-293 cells stably expressing NaV1.5 with β1 subunit, whole-cell patch clamp, membrane potential −60 mV (inactivated state)

Row | IC50 (human NaV1.7) | IC50 (hNav1.7) | Structure (SMILES) | IC50 (NaV1.5; [1]) | IC50 (NaV1.5) | IC50 (NaV1.5; [2])
1 | 4400 nM | 1900 nM | CC1(C)[C@@H]2[C@@H](C(=O)O)N(C(=O)c3cc(C4CC4)c(OCC45CC6CC(CC(C6)C4)C5)cc3F)C[C@@H]21 [Example 202, (1R,2S,5S)-3-(4-(adamantan-1-ylmethoxy)-5-cyclopropyl-2-fluorobenzoyl)-6,6-dimethyl-3-azabicyclo[3.1.0]hexane-2-carboxylic acid] | 16000 nM | – | –
2 | 550 nM | 230 nM | O=C(O)[C@@H]1CCCN1C(=O)c1cc(C2CC2)c(OCC2(F)CN(Cc3ccc(Cl)cc3C(F)(F)F)C2)cc1F [Example 99, 1-(4-((1-(4-chloro-2-(trifluoromethyl)benzyl)-3-fluoroazetidin-3-yl)methoxy)-5-cyclopropyl-2-fluorobenzoyl)pyrrolidine-2-carboxylic acid trifluoroacetic acid salt] | – | – | ≥ 30000 nM
3 | 700 nM | 200 nM | CC1[C@@H](C(=O)O)N(C(=O)c2cc(C3CC3)c(OCC3(F)CCN([C@@H](C)c4cc(Cl)cc(Cl)c4)CC3)cc2F)C[C@@H]1F (stereo partly drawn) [Example 209, (2S,4R)-1-(5-cyclopropyl-4-((1-((S)-1-(3,5-dichlorophenyl)ethyl)-4-fluoropiperidin-4-yl)methoxy)-2-fluorobenzoyl)-4-fluoro-3-methylpyrrolidine-2-carboxylic acid] | 20000 nM | – | –
4 | 16000 nM | 8900 nM | O=C(O)[C@@H]1CCCN1C(=O)c1cc(Cl)c(OC2C3CC4CC2CC(Cl)(C4)C3)cc1F (single isomer, unassigned) [Example 81] | – | – | ≥ 30000 nM
5 | 5300 nM | ≥ 10000 nM | O=C(O)C1CCN(C(=O)c2cc(C3CC3)c(OCC34CC5CC(CC(C5)C3)C4)cc2F)C1 (stereo not drawn) [Example 65, 1-(4-(adamantan-1-ylmethoxy)-5-cyclopropyl-2-fluorobenzoyl)pyrrolidine-3-carboxylic acid] | 23000 nM | – | –
6 | 410 nM | 31 nM | O=C(O)[C@@H]1CCCN1C(=O)c1cc(C2CC2)c(OCC2CCN([C@@H](c3cc(Cl)cc(Cl)c3)C(F)(F)F)CC2)cc1F (single isomer, unassigned) [Example 123b] | 7700 nM | – | –
7 | 640 nM | 22 nM | O=C(O)[C@@H]1CCCN1C(=O)c1cc(C2CCC2)c(OCC23CC4CC(CC(C4)C2)C3)cc1F [Example 194, (S)-1-(4-(adamantan-1-ylmethoxy)-5-cyclobutyl-2-fluorobenzoyl)pyrrolidine-2-carboxylic acid trifluoroacetate] | 10000 nM | – | –
8 | 340 nM | 33 nM | O=C(O)[C@@H]1C[C@@H](F)CN1C(=O)c1cc(C2CC2)c(OCC2CCN(Cc3cc(C(F)(F)F)ccc3F)CC2)cc1F [Example 103, (2S,4R)-1-(5-cyclopropyl-2-fluoro-4-((1-(2-fluoro-5-(trifluoromethyl)benzyl)-piperidin-4-yl)methoxy)benzoyl)-4-fluoropyrrolidine-2-carboxylic acid] | – | – | ≥ 30000 nM
9 | 880 nM | 20 nM | C[C@H]1CCN(C(=O)c2cc(C3CC3)c(OCC3CCN([C@H](c4cc(Cl)cc(Cl)c4)C(F)(F)F)CC3)cc2F)[C@@H]1C(=O)O (single isomer, unassigned) [Example 121a] | 13000 nM | – | –
10 | 300 nM | 6.9 nM | C[C@H]1OCN(C(=O)c2cc(C3CC3)c(OCC3CCN([C@H](c4cc(Cl)cc(Cl)c4)C(F)(F)F)CC3)cc2F)[C@@H]1C(=O)O (single isomer, unassigned) [Example 138a] | 13000 nM | – | –
11 | 1200 nM | 170 nM | O=C(O)[C@@H]1CS(=O)(=O)CN1C(=O)c1cc(C2CC2)c(OCC23CC4CC(CC(C4)C2)C3)cc1F [Example 143, (4R)-3-[4-(1-adamantylmethoxy)-5-cyclopropyl-2-fluoro-benzoyl]-1,1-dioxo-1,3-thiazolidine-4-carboxylic acid] | 21000 nM | – | –

Further lines, the compound ahead of its results:

Row | Structure (SMILES) | IC50 (human NaV1.7) | IC50 (hNav1.7) | IC50 (NaV1.5; [1]) | IC50 (NaV1.5) | IC50 (NaV1.5; [2])
12 | C[C@H]1OCN(C(=O)c2cc(C3CC3)c(OCC3CCN([C@@H](C)c4cc(Cl)cc(Cl)c4)CC3)cc2F)[C@@H]1C(=O)O [Example 164, (4S,5R)-3-[5-cyclopropyl-4-[[1-[(1S)-1-(3,5-dichlorophenyl)ethyl]-4-piperidyl]methoxy]-2-fluoro-benzoyl]-5-methyl-oxazolidine-4-carboxylic acid] | 62 nM | 25 nM | 13000 nM | – | –
13 | O=C(O)[C@@H]1CC2(CC2)CN1C(=O)c1cc(C2CC2)c(OCC2(F)CCN(Cc3cc(C(F)(F)F)ccc3Cl)CC2)cc1F [Example 221, (S)-5-(4-((1-(2-chloro-5-(trifluoromethyl)benzyl)-4-fluoropiperidin-4-yl)methoxy)-5-cyclopropyl-2-fluorobenzoyl)-5-azaspiro[2.4]heptane-6-carboxylic acid] | 1100 nM | 500 nM | – | 16000 nM | –
14 | O=C(O)[C@@H]1C[C@@H](F)CN1C(=O)c1cc(C2CC2)c(OCC2CCN(Cc3cc(C(F)(F)F)cc(C4CC4)n3)CC2)cc1F [Example 93, (2S, 4R)-1-(5-cyclopropyl-4-((1-((6-cyclopropyl-4-(trifluoromethyl)-pyridin-2-yl)methyl)piperidin-4-yl)methoxy)-2-fluorobenzoyl)-4-fluoropyrrolidine-2-carboxylic acid] | 660 nM | 81 nM | – | – | ≥ 30000 nM
15 | O=C(N[C@H](C(=O)O)C1CCC1)c1cc(C2CC2)c(OCC23CC4CC(CC(C4)C2)C3)cc1F [Example 170, (2S)-2-[[4-(1-adamantylmethoxy)-5-cyclopropyl-2-fluorobenzoyl]amino]-2-cyclobutyl-acetic acid] | 3800 nM | 260 nM | 3700 nM | – | –
16 | O=C(N[C@H](C(=O)O)C1CC1)c1cc(C2CC2)c(OCC2CCN([C@@H](c3ccccc3)c3cc(Cl)cc(Cl)c3)CC2)cc1F (single isomer, unassigned) [Example 119] | 850 nM | 15 nM | 9400 nM | – | –
17 | O=C(O)[C@@H]1CCCN1C(=O)c1cc(C2CC2)c(OCC23CCC(F)(CC2)CC3)cc1F [Example 56, (5-cyclopropyl-2-fluoro-4-((4-fluorobicyclo[2.2.2]octan-1-yl)methoxy)benzoyl)-L-proline] | 1800 nM | 410 nM | – | – | ≥ 30000 nM
18 | O=C(O)[C@@H]1CCC(=O)N1C(=O)c1cc(C2CC2)c(OCC23CC4CC(CC(C4)C2)C3)cc1F [Example 198, (S)-1-(4-(adamantan-1-ylmethoxy)-5-cyclopropyl-2-fluorobenzoyl)-5-oxopyrrolidine-2-carboxylic acid] | 4500 nM | 1100 nM | 18000 nM | – | –
19 | O=C(O)[C@@H]1C[C@H](O)CN1C(=O)c1cc(C2CC2)c(OCC23CC4CC(CC(C4)C2)C3)cc1F [Example 161, (2S,4S)-1-[4-(1-adamantylmethoxy)-5-cyclopropyl-2-fluoro-benzoyl]-4-hydroxy-pyrrolidine-2-carboxylic acid] | 980 nM | 390 nM | – | – | ≥ 30000 nM
20 | O=C(NC(C(=O)O)C(F)(F)F)c1cc(C2CC2)c(OCC23CC4CC(CC(C4)C2)C3)cc1F (stereo not drawn) [Example 223, 2-(4-(adamantan-1-ylmethoxy)-5-cyclopropyl-2-fluorobenzamido)-3,3,3-trifluoropropanoic acid] | 2900 nM | 910 nM | 3900 nM | – | –
21 | O=C(O)[C@@H]1COC(=O)N1C(=O)c1cc(C2CC2)c(OCC23CC4CC(CC(C4)C2)C3)cc1F [Example 133, (S)-3-(4-(adamantan-1-ylmethoxy)-5-cyclopropyl-2-fluorobenzoyl)-2-oxooxazolidine-4-carboxylic acid] | 18000 nM | 1400 nM | 9400 nM | – | –
22 | O=C(O)[C@@H]1CC(O)(C(F)(F)F)CN1C(=O)c1cc(C2CC2)c(OCC23CC4CC(CC(C4)C2)C3)cc1F (stereo partly drawn) [Example 213, (2S)-1-(4-((adamantan-1-yl)methoxy)-5-cyclopropyl-2-fluorobenzoyl)-4-hydroxy-4-(trifluoromethyl)pyrrolidine-2-carboxylic acid] | 3400 nM | 5300 nM | 7600 nM | – | –
23 | COC[C@@H](c1cc(Cl)cc(Cl)c1)N1CCC(COc2cc(F)c(C(=O)N3C[C@H](F)C[C@H]3C(=O)O)cc2C2CC2)CC1 [Example 131, (2S,4R)-1-(5-cyclopropyl-4-((1-((R)-1-(3,5-dichlorophenyl)-2-methoxyethyl)piperidin-4-yl)methoxy)-2-fluorobenzoyl)-4-fluoropyrrolidine-2-carboxylic acid] | 250 nM | 28 nM | 18000 nM | – | –
24 | NC(=O)[C@@H]1CCCN1C(=O)c1cc(C2CC2)c(COc2cc(Cl)cc(OC(F)(F)F)c2)cc1F [Example 188, (5)-1-(4-((3-chloro-5-(trifluoromethoxy)phenoxy)methyl)-5-cyclopropyl-2-fluorobenzoyl)pyrrolidine-2-carboxamide] | 6600 nM | 9100 nM | 16000 nM | – | –
25 | CC1(COc2cc(F)c(C(=O)N3CCC[C@H]3C(=O)O)cc2C2CC2)CN(C(c2ccccc2)c2cc(Cl)cc(Cl)c2)C1 (stereo partly drawn) [Example 196, (2S)-1-(5-cyclopropyl-4-((1-((3,5-dichlorophenyl)(phenyl)methyl)-3-methylazetidin-3-yl)methoxy)-2-fluorobenzoyl)pyrrolidine-2-carboxylic acid trifluoroacetate] | 1400 nM | 18 nM | 13000 nM | – | –
